Molecules are shown by their SMILES.

The nature of this experiment: Inhibition of binding of [3H]DADLE to Opioid receptor delta 1 in guinea pig membranes.
The molecule `C[C@H]1CN(CC[C@H](O)C2CCCCC2)CC[C@@]1(C)c1cccc(O)c1` [3-[1-(3-Cyclohexyl-3-hydroxy-propyl)-3,4-dimethyl-piperidin-4-yl]-phenol] came in with a Ki of 0.198 µM. Consider `C[C@H]1CN(C/C=C/c2ccccc2)CC[C@@]1(C)c1cccc(O)c1` [3-[(3R,4R)-3,4-Dimethyl-1-((E)-3-phenyl-allyl)-piperidin-4-yl]-phenol], for which the affinity corresponds to a Ki of 0.322 µM.

`C[C@H]1CN(C/C=C/c2ccccc2Cl)CC[C@@]1(C)c1cccc(O)c1` [3-{(3R,4R)-1-[(E)-3-(2-Chloro-phenyl)-allyl]-3,4-dimethyl-piperidin-4-yl}-phenol] had a Ki of 0.168 µM. `Cc1ccccc1/C=C/CN1CC[C@@](C)(c2cccc(O)c2)[C@@H](C)C1` [RTI-5989-25] came in with an inhibition constant Ki of 0.142 µM.

The values above are taken from BindingDB's records for doi:10.1021/jm030092d (Research Triangle Institute, 2003).
